Patent US20230271954A1 (Gossamer Bio Services, Inc., priority 2020, published 2023)

Columns and labels:
DGKα = DGKα (Homo sapiens, UniProt P23743); assay: DGKα biochemical assay (ADP-Glo); details: read-out: DGK α IC50
Protocol: (§1) Compounds of the present invention were prepared into 10 mM DMSO solution and 10 nL of stock was transferred into 384 plates (Optiplate 384 plate) using Echo550. DMSO was used as high control, and ATP substrate buffer was used as a low control. A 1× enzyme assay buffer was prepared (Hepes, pH 7.0 25 mM, BSA 0.05%, Triton-X100 0.002%, CaCl2) 1 μM, MgCl2 10 mM, DTT 2 mM). […] OAG (1-oleoyl-2-acetyl-sn-glycerol, 25 mg/ml, Avanti 8001000) and PS (10 mg/ml, Avanti 840032P) were mixed at the ratio of 1:2. A 1× substrate solution was prepared with 1× assay buffer by 100-fold dilution. The substrate solution was sonicated on ice for 1 min. The pure ATP was added to the substrate solution (DGKα:400 μM). 5 μL of the enzyme solution were added to the 384 well plate, and the plate was spun for 1 min at 1000 rpm and incubated for 30 mins at RT. 5 μL of 1× substrate solution were added to the 384 well plate, the plate was spun and then incubated for 45 mins at RT. 10 μL ADP-Glo […] was added to stop the assay. After 60 mins at RT, 20 μL ADP-Glo Detection buffer was added as the final step. Plate was read after 45 min incubation at RT.
(§2) Data analysis was performed by calculating the […] using following the formula:
(§3) [formula] • High control (Hc): DMSO/DGKα(DGKζ)/Substrate/ATP/ADP-Glo • Low Control (Lc): ATP/ADP-Glo

DGKζ = biological target: T1, DGKζ (Homo sapiens, UniProt Q13574); assay: DGKζ biochemical assay (ADP-Glo); details: read-out: DGK ζ IC50
T1 construct: purchased Carna 12-110
T1 sequence (Q13574 1-929 isoform Q13574-4): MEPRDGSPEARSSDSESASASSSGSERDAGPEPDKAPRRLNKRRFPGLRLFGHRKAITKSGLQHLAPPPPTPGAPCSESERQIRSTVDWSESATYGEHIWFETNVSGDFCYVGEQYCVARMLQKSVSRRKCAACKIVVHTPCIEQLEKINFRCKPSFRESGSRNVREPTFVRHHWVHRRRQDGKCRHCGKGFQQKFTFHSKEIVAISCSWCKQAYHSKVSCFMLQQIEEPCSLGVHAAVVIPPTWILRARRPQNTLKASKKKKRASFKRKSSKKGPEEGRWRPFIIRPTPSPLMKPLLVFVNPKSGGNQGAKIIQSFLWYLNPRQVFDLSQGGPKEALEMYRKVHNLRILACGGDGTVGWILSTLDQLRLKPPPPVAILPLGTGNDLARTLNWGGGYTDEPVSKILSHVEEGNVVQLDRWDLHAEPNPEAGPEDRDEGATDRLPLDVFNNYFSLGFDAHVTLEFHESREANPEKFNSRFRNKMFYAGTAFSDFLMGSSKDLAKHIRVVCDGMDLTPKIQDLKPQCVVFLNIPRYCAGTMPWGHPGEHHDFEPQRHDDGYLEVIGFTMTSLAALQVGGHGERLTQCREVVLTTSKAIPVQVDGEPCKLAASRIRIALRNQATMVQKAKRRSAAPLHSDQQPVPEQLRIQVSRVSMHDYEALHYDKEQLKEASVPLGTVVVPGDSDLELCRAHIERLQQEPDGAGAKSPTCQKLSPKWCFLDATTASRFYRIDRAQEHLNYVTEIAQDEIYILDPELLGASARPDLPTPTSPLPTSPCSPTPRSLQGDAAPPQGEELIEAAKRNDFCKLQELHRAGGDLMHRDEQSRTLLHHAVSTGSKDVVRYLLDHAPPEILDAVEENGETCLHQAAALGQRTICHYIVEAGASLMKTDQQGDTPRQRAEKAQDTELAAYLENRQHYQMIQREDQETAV
Protocol: as §1, §2, §3

Sequence of DGKα (P23743 whole entry): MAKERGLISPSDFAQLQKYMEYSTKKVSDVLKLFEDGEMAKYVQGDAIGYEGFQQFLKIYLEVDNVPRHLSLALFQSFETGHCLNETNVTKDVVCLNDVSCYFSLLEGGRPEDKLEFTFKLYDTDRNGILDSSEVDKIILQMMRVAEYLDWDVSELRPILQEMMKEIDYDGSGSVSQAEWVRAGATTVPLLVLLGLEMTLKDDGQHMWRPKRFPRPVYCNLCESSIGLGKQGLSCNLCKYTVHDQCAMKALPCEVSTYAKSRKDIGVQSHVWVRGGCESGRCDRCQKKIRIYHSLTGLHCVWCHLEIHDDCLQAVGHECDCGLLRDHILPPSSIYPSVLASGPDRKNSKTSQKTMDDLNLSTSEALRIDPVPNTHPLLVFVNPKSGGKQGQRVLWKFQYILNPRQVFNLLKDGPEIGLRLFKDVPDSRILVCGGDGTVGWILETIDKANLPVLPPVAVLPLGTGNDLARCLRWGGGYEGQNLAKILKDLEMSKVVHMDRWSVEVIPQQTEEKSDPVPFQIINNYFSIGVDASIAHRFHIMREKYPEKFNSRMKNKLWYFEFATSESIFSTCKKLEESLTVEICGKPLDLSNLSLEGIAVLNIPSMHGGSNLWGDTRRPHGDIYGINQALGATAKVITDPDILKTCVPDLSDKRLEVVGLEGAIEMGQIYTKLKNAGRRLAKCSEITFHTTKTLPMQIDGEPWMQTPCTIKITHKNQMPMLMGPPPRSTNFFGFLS

| Structure (SMILES) | IC50 (DGKα) [nM] | IC50 (DGKζ) [nM] |
| --- | --- | --- |
| COc1cc(F)ccc1N(C1CC1)[C@H]1CC[C@H](N(C)c2cc(=O)n(C)c3ccc(C#N)nc23)CC1 [Example 3V] | ≥ 1000 | 100 to 1000 |
| COc1cc(F)ccc1N(C1CC1)[C@H]1CC[C@@H](N(C)c2cc(=O)n(C)c3ccc(C#N)nc23)CC1 [Example 3W, cis-8-[[4-(N-Cyclopropyl-4-fluoro-2-methoxy-anilino)cyclohexyl]-methyl-amino]-5-methyl-6-oxo-1,5-naphthyridine-2-carbonitrile] | 100 to 1000 | 100 to 1000 |
| Cn1c(=O)cc(N(C)[C@H]2CC[C@H](N(c3ccc(F)cc3O)C3CC3)CC2)c2nc(C#N)ccc21 [Example 3X, trans-8-((4-(cyclopropyl(4-fluoro-2-hydroxyphenyl)amino)cyclohexyl)(methyl)amino)-5-methyl-6-oxo-5,6-dihydro-1,5-naphthyridine-2-carbonitrile] | 100 to 1000 | ≥ 1000 |
| COc1cc(F)ccc1N(CC1CC1)[C@H]1CC[C@H](N(C)c2cc(=O)n(C)c3ccc(C#N)nc23)CC1 [Example 3Y, trans-8-[[4-(N-cyclopropylmethyl-N-4-fluoro-2-methoxyphenyl-anilino)cyclohexyl]-methyl-amino]-5-methyl-6-oxo-5,6-dihydro-1,5-naphthyridine-2-carbonitrile] | ≥ 1000 | ≥ 1000 |
| COc1cc(F)ccc1N(CC1CC1)[C@H]1CC[C@@H](N(C)c2cc(=O)n(C)c3ccc(C#N)nc23)CC1 [Example 3Z, cis-8-[[4-(N-cyclopropylmethyl-N-4-fluoro-2-methoxyphenyl-anilino)cyclohexyl]-methyl-amino]-5-methyl-6-oxo-5,6-dihydro-1,5-naphthyridine-2-carbonitrile] | 100 to 1000 | 100 to 1000 |
| Cn1c(=O)c(C#N)c(N(C)[C@H]2CC[C@@H](N(c3ccc(F)cc3F)C3CC3)CC2)c2nc(Cl)ccc21 [Example 5, cis-6-chloro-4-((-4-(cyclopropyl(2,4-difluorophenyl)amino)cyclohexyl)(methyl)amino)-1-methyl-2-oxo-1,2-dihydro-1,5-naphthyridine-3-carbonitrile] | 100 to 1000 | ≥ 1000 |
| Cn1c(=O)c(C#N)c(N(C)[C@H]2CC[C@@H](N(CC3CC3)c3ccc(Cl)cc3)CC2)c2nc(Cl)ccc21 [Example 6, cis-6-chloro-4-((4-((4-chlorophenyl) (cyclopropylmethyl)amino)cyclohexyl)(methyl)amino)-1-methyl-2-oxo-1,2-dihydro-1,5-naphthyridine-3-carbonitrile] | 10 to 100 | ≥ 1000 |
| Cn1c(=O)cc(N(C)[C@H]2CC[C@@H](N(CC3CC3)c3ccc(Cl)cc3)CC2)c2nc(C#N)ccc21 [Example 7, cis-8-((4-((4-chlorophenyl)(cyclopropylmethyl)amino)cyclohexyl)(methyl)amino)-5-methyl-6-oxo-5,6-dihydro-1,5-naphthyridine-2-carbonitrile] | 10 to 100 | ≥ 1000 |
| COc1cc(F)ccc1N(CC1CC1)[C@H]1CC[C@@H](N(C)c2c(C#N)c(=O)n(C)c3cccnc23)CC1 [Example 9, cis-4-((4-((cyclopropylmethyl)(4-fluoro-2-methoxyphenyl)amino)cyclohexyl)(methyl)amino)-1-methyl-2-oxo-1,2-dihydro-1,5-naphthyridine-3-carbonitrile] | ≥ 1000 | ≥ 1000 |
| Cn1c(=O)c(C#N)c(N(C)[C@H]2CC[C@@H](N(c3ccc(F)cc3)C3CCC3)CC2)c2nc(Cl)ccc21 [Example 10, cis-6-chloro-4-((4-(cyclobutyl(4-fluorophenyl)amino)cyclohexyl)(methyl)amino)-1-methyl-2-oxo-1,2-dihydro-1,5-naphthyridine-3-carbonitrile] | < 10 | 100 to 1000 |
| COc1cccc(N(CC2CC2)[C@H]2CC[C@@H](N(C)c3c(C#N)c(=O)n(C)c4ccc(Cl)nc34)CC2)c1 [Example 11, cis-6-chloro-4-((4-((cyclopropylmethyl)(3-methoxyphenyl)amino)cyclohexyl)(methyl)amino)-1-methyl-2-oxo-1,2-dihydro-1,5-naphthyridine-3-carbonitrile] | 10 to 100 | 100 to 1000 |
| COc1cccc(N(CC2CC2)[C@H]2CC[C@@H](N(C)c3cc(=O)n(C)c4ccc(C#N)nc34)CC2)c1 [Example 12, cis-8-((4-((cyclopropylmethyl)(3-methoxyphenyl)amino)cyclohexyl)(methyl)amino)-5-methyl-6-oxo-5,6-dihydro-1,5-naphthyridine-2-carbonitrile] | 100 to 1000 | ≥ 1000 |

Continued, values first:

| IC50 (DGKα) [nM] | IC50 (DGKζ) [nM] | Structure (SMILES) |
| --- | --- | --- |
| 10 to 100 | 100 to 1000 | Cn1c(=O)c(C#N)c(N(C)[C@H]2CC[C@@H](N(CC3COC3)c3ccc(F)cc3)CC2)c2nc(Cl)ccc21 [Example 3M, cis-6-Chloro-4-[[4-(N-4-fluorophenyl-N-oxetan-3-ylmethylanilino)cyclohexyl]-methylamino]-1-methyl-2-oxo-1,2-dihydro-1,5-naphthyridine-3-carbonitrile] |
| 10 to 100 | ≥ 1000 | Cn1c(=O)c(C#N)c(N(C)[C@H]2CC[C@H](N(CC3COC3)c3ccc(F)cc3)CC2)c2nc(Cl)ccc21 [Example 3N, trans-6-Chloro-4-[[4-(N-4-fluorophenyl-N-oxetan-3-ylmethylanilino)cyclohexyl]-methylamino]-1-methyl-2-oxo-1,2-dihydro-1,5-naphthyridine-3-carbonitrile] |
| 100 to 1000 | ≥ 1000 | Cn1c(=O)c(C#N)c(N(C)[C@H]2CC[C@H](N(CC3COC3)c3ccc(F)cc3O)CC2)c2nc(Cl)ccc21 [Example 3O, trans-6-chloro-4-((4-((4-fluoro-2-hydroxyphenyl)(oxetan-3-ylmethyl)amino)cyclohexyl)(methyl)amino)-1-methyl-2-oxo-1,2-dihydro-1,5-naphthyridine-3-carbonitrile] |
| 100 to 1000 | ≥ 1000 | Cn1c(=O)cc(N[C@H]2CC[C@@H](N(CC3COC3)c3ccccc3)CC2)c2nc(C#N)ccc21 [Example 3Q, cis-5-Methyl-8-((4-((oxetan-3-ylmethyl)(phenyl)amino)cyclohexyl)amino)-6-oxo-5,6-dihydro-1,5-naphthyridine-2-carbonitrile] |
| 10 to 100 | ≥ 1000 | Cn1c(=O)cc(N[C@H]2CC[C@H](N(CC3CC3)c3ccc(F)cc3)CC2)c2nc(C#N)ccc21 [Example 3R, trans-8-((4-((Cyclopropylmethyl)(4-fluorophenyl)amino)cyclohexyl)amino)-5-methyl-6-oxo-5,6-dihydro-1,5-naphthyridine-2-carbonitrile] |
| 100 to 1000 | 100 to 1000 | Cn1c(=O)cc(N(C)[C@H]2CC[C@H](N(c3ccccc3)C3CC3)CC2)c2nc(C#N)ccc21 [Example 3T, trans-8-((4-(cyclopropyl(phenyl)amino)cyclohexyl)(methyl)amino)-5-methyl-6-oxo-5,6-dihydro-1,5-naphthyridine-2-carbonitrile] |
| ≥ 1000 | ≥ 1000 | Cc1[nH]c2ccccc2c1C(=O)N[C@H]1CC[C@@H](N(CC2CC2)c2ccccc2)CC1 [Example 4A] |
| ≥ 1000 | ≥ 1000 | Cc1[nH]c2ccccc2c1C(=O)N[C@H]1CC[C@H](N(CC2CC2)c2ccccc2)CC1 [Example 4B] |
| ≥ 1000 | ≥ 1000 | Cc1[nH]c2ccccc2c1C(=O)N[C@H]1CC[C@H](N(CC2COC2)c2ccccc2)CC1 [Example 4C, trans-2-Methyl-N-(4-((oxetan-3-ylmethyl)(phenyl)amino)cyclohexyl)-1H-indole-3-carboxamide] |
| ≥ 1000 | ≥ 1000 | Cc1[nH]c2ccccc2c1C(=O)N[C@H]1CC[C@@H](N(CC2COC2)c2ccccc2)CC1 [Example 4D, cis-2-Methyl-N-(4-((oxetan-3-ylmethyl)(phenyl)amino)cyclohexyl)-1H-indole-3-carboxamide] |
| ≥ 1000 | ≥ 1000 | Cc1[nH]c2ccccc2c1C(=O)N[C@H]1CC[C@H](N(CC2(C)COC2)c2ccccc2)CC1 [Example 4E, trans-2-Methyl-N-(4-(((3-methyloxetan-3-yl)methyl)(phenyl)amino)cyclohexyl)-1H-indole-3-carboxamide] |
| ≥ 1000 | ≥ 1000 | O=C(N[C@H]1CC[C@@H](N(CC2CC2)c2ccccc2)CC1)c1c[nH]c2cccnc12 [Example 4F, cis-N-(4-((Cyclopropylmethyl)(phenyl)amino)cyclohexyl)-1H-pyrrolo[3,2-b]pyridine-3-carboxamide] |
| ≥ 1000 | ≥ 1000 | O=C(N[C@H]1CC[C@@H](N(CC2CC2)c2ccccc2)CC1)c1cnn2cccnc12 [Example 4G, cis-N-(4-((Cyclopropylmethyl)(phenyl)amino)cyclohexyl) pyrazolo[1,5-a]pyrimidine-3-carboxamide] |
| 10 to 100 | ≥ 1000 | Cn1c(=O)c(C#N)c(N(C)[C@H]2CC[C@@H](N(CC3CC3)c3ccc(Cl)cc3)CC2)c2ncccc21 [Example 8, cis-4-((4-((4-chlorophenyl)(cyclopropylmethyl)amino)cyclohexyl)(methyl)amino)-1-methyl-2-oxo-1,2-dihydro-1,5-naphthyridine-3-carbonitrile] |
